Measured values: ChEMBL document CHEMBL1148056, “Four new dimeric peptide alkaloids, anchinopeptolides B-D, and cycloanchinopeptolide C, congeners of anchinopeptolide A, from the Mediterranean marine sponge Anchinoe tenacior” (J Nat Prod, 1994)

What was measured:
[1] = species: Rattus norvegicus; assay: Displacement of [125I]somatostatin from rat somatostatin receptor at 5 ug/ml
[2] = molecular target: B2 bradykinin receptor (Homo sapiens) (UniProt P30411); assay: Displacement of [3H]bradykinin from human B2 bradykinin receptor expressed in SF21 cells at 5 ug/ml
[3] = species: Rattus norvegicus; assay: Displacement of [3H]NPY from rat neuropeptide Y receptor at 5 ug/ml

Chain of B2 bradykinin receptor (Homo sapiens) (P30411 whole entry, looked up): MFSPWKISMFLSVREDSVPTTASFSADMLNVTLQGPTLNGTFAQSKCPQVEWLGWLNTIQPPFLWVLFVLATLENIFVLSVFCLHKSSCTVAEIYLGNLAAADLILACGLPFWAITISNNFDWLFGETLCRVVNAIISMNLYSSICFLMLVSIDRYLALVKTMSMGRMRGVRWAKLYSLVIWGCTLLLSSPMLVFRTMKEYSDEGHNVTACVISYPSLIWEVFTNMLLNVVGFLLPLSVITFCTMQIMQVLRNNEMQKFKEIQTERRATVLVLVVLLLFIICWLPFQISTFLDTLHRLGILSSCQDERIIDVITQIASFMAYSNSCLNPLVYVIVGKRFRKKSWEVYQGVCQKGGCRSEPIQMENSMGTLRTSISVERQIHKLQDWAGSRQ

Row | Activity [1] [%] | Activity [2] [%] | Activity [3] [%] | SMILES
1 | 77 | – | – | N=C(N)NCCC[C@@]1(O)C(=O)N(CC(=O)N/C=C/c2ccc(O)cc2)[C@@](O)(C(=O)NCC(=O)N/C=C/c2ccc(O)cc2)[C@@H]1CCNC(=N)N
2 | – | 71 | 80 | C[C@@H](C(=O)N/C=C/c1ccc(O)cc1)N1C(=O)[C@](O)(CCCNC(=N)N)[C@@H](CCNC(=N)N)[C@]1(O)C(=O)NCC(=O)N/C=C/c1ccc(O)cc1
3 | 35 | 35 | 35 | C[C@H](NC(=O)[C@@]1(O)[C@H](CCNC(=N)N)[C@@](O)(CCCNC(=N)N)C(=O)N1[C@@H](C)C(=O)N/C=C/c1ccc(O)cc1)C(=O)N/C=C/c1ccc(O)cc1
4 | 62 | 52 | 57 | C[C@H](NC(=O)[C@@]1(O)[C@H](CCNC(=N)N)[C@@](O)(CCCNC(=N)N)C(=O)N1CC(=O)N/C=C/c1ccc(O)cc1)C(=O)N/C=C/c1ccc(O)cc1
